Measurements: patent US11420956B2, “Ureas having Androgen Receptor degradation activity and uses thereof” (ACCUTAR BIOTECHNOLOGY INC., priority 2019, dated 2022)

Target: T1, androgen receptor (AR) (Homo sapiens, UniProt P10275, T878A)
T1 construct: endogenous in cells; host or cells: LNCAP
T1 sequence (P10275 1-920 T878A): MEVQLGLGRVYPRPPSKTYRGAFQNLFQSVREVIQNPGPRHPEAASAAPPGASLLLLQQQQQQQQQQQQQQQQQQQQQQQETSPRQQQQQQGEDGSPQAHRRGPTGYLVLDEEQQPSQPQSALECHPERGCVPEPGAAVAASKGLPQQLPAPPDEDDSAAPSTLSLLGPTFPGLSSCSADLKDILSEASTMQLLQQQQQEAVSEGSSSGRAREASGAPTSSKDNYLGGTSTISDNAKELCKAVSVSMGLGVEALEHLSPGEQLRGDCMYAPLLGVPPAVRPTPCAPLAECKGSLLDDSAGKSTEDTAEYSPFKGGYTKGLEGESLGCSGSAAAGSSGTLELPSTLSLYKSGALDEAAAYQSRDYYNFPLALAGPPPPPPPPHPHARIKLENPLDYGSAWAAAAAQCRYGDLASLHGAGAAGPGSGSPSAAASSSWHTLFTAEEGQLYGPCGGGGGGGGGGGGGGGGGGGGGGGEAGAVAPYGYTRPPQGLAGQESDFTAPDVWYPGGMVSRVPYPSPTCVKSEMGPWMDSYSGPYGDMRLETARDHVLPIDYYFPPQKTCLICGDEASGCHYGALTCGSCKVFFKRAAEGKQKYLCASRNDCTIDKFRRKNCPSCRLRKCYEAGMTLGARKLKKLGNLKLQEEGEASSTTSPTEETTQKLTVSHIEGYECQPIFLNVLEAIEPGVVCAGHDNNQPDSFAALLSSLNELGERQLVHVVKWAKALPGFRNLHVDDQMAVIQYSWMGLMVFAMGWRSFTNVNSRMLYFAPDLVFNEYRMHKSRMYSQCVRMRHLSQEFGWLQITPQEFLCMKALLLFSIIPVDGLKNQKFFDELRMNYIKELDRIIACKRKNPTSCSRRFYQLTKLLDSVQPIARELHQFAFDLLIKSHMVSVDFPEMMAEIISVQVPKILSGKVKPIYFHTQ
Assay: AR degradation in LNCAP cells (Western blot)
Assay type: cell-based
Conditions: 24 hours after administration
Description: LNCAP, VCAP and 22Rv1 cells were plated in 24-well plates at 1.5×10E5 cells/well in the RPMI growth medium containing 10% FBS and 1% Penicillin Streptomycin, and then incubated at 37° C. overnight. The following day, the test compound was administered to the cells by using 1000× compound stock solution prepared in DMSO at various concentrations. After administration of the compound, the cells were then incubated at 37° C. for 24 hours. Upon completion, the cells were washed with PBS and protein was collected in Laemmli sample buffer (1×; VWR International). Proteins in cell lysate were separated by SDS-PAGE and transferred to Odyssey nitrocellulose membranes (Licor) with iblot® dry blotting transfer system (ThermoFisher). Nonspecific binding was blocked by incubating membranes with Intercept Blocking Buffer (Licor) for 1 hour at room temperature with gentle shaking. The membranes were then incubated overnight at 4° C. with Primary antibodies rabbit anti-AR (1:1,000, Cell Signaling, 5153) and mouse anti-GAPDH (1:5,000, Santa Cruz Biotechnology, sc-47724) diluted in Intercept Blocking Buffer containing 0.1% Tween 20. After washing 3 times with TBS-T, the membranes were incubated with IRDye® […] goat anti-mouse IgG (1:20,000, Licor) or IRDye® […] goat anti-rabbit IgG (1:20,000, Licor) for 1 hour. After TBS-T washes, membranes were rinsed in TBS and scanned on Odyssey® CLx Imaging System (Licor). The bands were quantified using Image Studio™ Software (Licor).
Tables 5 and 6 summarize the androgen receptor (AR) degradative activity of exemplary compounds in LNCAP, VCAP and 22Rv1 cell lines 24 hours after administration. DC50: compound concentration needed for 50% target protein degradation.

Structure (SMILES)	DC50 [nM]
C[C@@H]1CN(c2ccc(C#N)c(Cl)c2)[C@@H](C)CN1C(=O)Nc1ccc(OCCCCN(C)C2CC(Oc3ccc4c(c3)C(=O)N(C3CCC(=O)NC3=O)C4=O)C2)nc1 (stereo partly drawn) [Compound 1-8, (2R,5S)-4-(3-chloro-4-cyanophenyl)-N-(6-(4-(((1r,3r)-3-((2-(2,6-dioxopiperidin-3-yl)-1,3-dioxoisoindolin-5-yl)oxy)cyclobutyl)(methyl)amino)butoxy)pyridin-3-yl)-2,5-dimethylpiperazine-1-carboxamide]	≤ 10
C[C@@H]1CN(c2ccc(C#N)c(Cl)c2)[C@@H](C)CN1C(=O)Nc1ccc(N2CCC(CN(C)C3CC(Oc4ccc5c(c4)C(=O)N(C4CCC(=O)NC4=O)C5=O)C3)CC2)nc1 (stereo partly drawn) [Compound 1-9, (2R,5S)-4-(3-chloro-4-cyanophenyl)-N-(6-(4-((((1r,3r)-3-((2-(2,6-dioxopiperidin-3-yl)-1,3-dioxoisoindolin-5-yl)oxy)cyclobutyl)(methyl)amino)methyl)piperidin-1-yl)pyridin-3-yl)-2,5-dimethylpiperazine-1-carboxamide]	≤ 10
CCN(CC1CCN(c2ccc(NC(=O)N3C[C@H](C)N(c4ccc(C#N)c(Cl)c4)C[C@H]3C)cn2)CC1)C1CC(Oc2ccc3c(c2)C(=O)N(C2CCC(=O)NC2=O)C3=O)C1 (stereo partly drawn) [Compound 1-10, (2R,5S)-4-(3-chloro-4-cyanophenyl)-N-(6-(4-((((1r,3r)-3-((2-(2,6-dioxopiperidin-3-yl)-1,3-dioxoisoindolin-5-yl)oxy)cyclobutyl)(ethyl)amino)methyl)piperidin-1-yl)pyridin-3-yl)-2,5-dimethylpiperazine-1-carboxamide]	10 to 100
CC(C)N(CC1CCN(c2ccc(NC(=O)N3C[C@H](C)N(c4ccc(C#N)c(Cl)c4)C[C@H]3C)cn2)CC1)C1CC(Oc2ccc3c(c2)C(=O)N(C2CCC(=O)NC2=O)C3=O)C1 (stereo partly drawn) [Compound 1-11, (2R,5S)-4-(3-chloro-4-cyanophenyl)-N-(6-(4-((((1r,3r)-3-((2-(2,6-dioxopiperidin-3-yl)-1,3-dioxoisoindolin-5-yl)oxy)cyclobutyl)(isopropyl)amino)methyl)piperidin-1-yl)pyridin-3-yl)-2,5-dimethylpiperazine-1-carboxamide]	≤ 10
CC(C)N(CC1CCN(c2ccc(NC(=O)N3C[C@H](C)N(c4ccc(C#N)c(Cl)c4)C[C@H]3C)cn2)CC1)C1CC(Oc2ccc3c(c2)C(=O)N(C2CCC(=O)NC2=O)C3=O)C1 (stereo partly drawn) [Compound 1-12, (2R,5S)-4-(3-chloro-4-cyanophenyl)-N-(6-(4-((((1s,3s)-3-((2-(2,6-dioxopiperidin-3-yl)-1,3-dioxoisoindolin-5-yl)oxy)cyclobutyl)(isopropyl)amino)methyl)piperidin-1-yl)pyridin-3-yl)-2,5-dimethylpiperazine-1-carboxamide]	10 to 100
C[C@@H]1CN(c2ccc(C#N)c(Cl)c2)[C@@H](C)CN1C(=O)Nc1ccc(N2CCC(CN3CCN(c4ccc5c(c4)C(=O)N(C4CCC(=O)NC4=O)C5=O)CC3)CC2)nc1 (stereo partly drawn) [Compound 1-13, (2R,5S)-4-(3-chloro-4-cyanophenyl)-N-(6-(4-((4-(2-(2,6-dioxopiperidin-3-yl)-1,3-dioxoisoindolin-5-yl)piperazin-1-yl)methyl)piperidin-1-yl)pyridin-3-yl)-2,5-dimethylpiperazine-1-carboxamide]	≤ 10
C[C@@H]1CN(c2ccc(C#N)c(Cl)c2)[C@@H](C)CN1C(=O)Nc1ccc(N2CCC(CCN3CCN(c4ccc5c(c4)C(=O)N(C4CCC(=O)NC4=O)C5=O)CC3)CC2)nc1 (stereo partly drawn) [Compound 1-19, (2R,5S)-4-(3-chloro-4-cyanophenyl)-N-(6-(4-(2-(4-(2-(2,6-dioxopiperidin-3-yl)-1,3-dioxoisoindolin-5-yl)piperazin-1-yl)ethyl)piperidin-1-yl)pyridin-3-yl)-2,5-dimethylpiperazine-1-carboxamide]	≤ 10
C[C@@H]1CN(c2ccc(C#N)c(Cl)c2)[C@@H](C)CN1C(=O)Nc1ccc(N2CCC(CN3CCN(c4ccc5c(c4)C(=O)N(C4CCC(=O)NC4=O)C5=O)CC3)CC2)cc1F (stereo partly drawn) [Compound 1-23, (2R,5S)-4-(3-chloro-4-cyanophenyl)-N-(4-(4-((4-(2-(2,6-dioxopiperidin-3-yl)-1,3-dioxoisoindolin-5-yl)piperazin-1-yl)methyl)piperidin-1-yl)-2-fluorophenyl)-2,5-dimethylpiperazine-1-carboxamide]	≤ 10
COc1cc(N2C[C@@H](C)N(C(=O)Nc3ccc(N4CCC(CN5CCN(c6ccc7c(c6)C(=O)N(C6CCC(=O)NC6=O)C7=O)CC5)CC4)cc3F)C[C@@H]2C)ccc1C#N (stereo partly drawn) [Compound 1-25, (2R,5S)-4-(4-cyano-3-methoxyphenyl)-N-(4-(4-((4-(2-(2,6-dioxopiperidin-3-yl)-1,3-dioxoisoindolin-5-yl)piperazin-1-yl)methyl)piperidin-1-yl)-2-fluorophenyl)-2,5-dimethylpiperazine-1-carboxamide]	≤ 10
COc1cc(N2C[C@@H](C)N(C(=O)Nc3ccc(N4CCC(CN5CCN(c6ccc7c(c6)CN([C@H]6CCC(=O)NC6=O)C7=O)CC5)CC4)nc3)C[C@@H]2C)ccc1C#N [Compound 1-33, (2R,5S)-4-(4-cyano-3-methoxyphenyl)-N-(6-(4-((4-(2-((S)-2,6-dioxopiperidin-3-yl)-1-oxoisoindolin-5-yl)piperazin-1-yl)methyl)piperidin-1-yl)pyridin-3-yl)-2,5-dimethylpiperazine-1-carboxamide]	≤ 10
COc1cc(N2C[C@@H](C)N(C(=O)Nc3ccc(N4CCC(CN5CCN(c6cc7c(cc6F)C(=O)N(C6CCC(=O)NC6=O)C7=O)CC5)CC4)nc3)C[C@@H]2C)ccc1C#N (stereo partly drawn) [Compound 1-39, (2R,5S)-4-(4-cyano-3-methoxyphenyl)-N-(6-(4-((4-(2-(2,6-dioxopiperidin-3-yl)-6-fluoro-1,3-dioxoisoindolin-5-yl)piperazin-1-yl)methyl)piperidin-1-yl)pyridin-3-yl)-2,5-dimethylpiperazine-1-carboxamide]	≤ 10
C[C@@H]1CN(c2ccc(C#N)c(Cl)c2)[C@@H](C)CN1C(=O)Nc1cnc(N2CCC(CN3CCN(c4cc5c(cc4F)C(=O)N(C4CCC(=O)NC4=O)C5=O)CC3)CC2)nc1 (stereo partly drawn) [Compound 1-41, (2R,5S)-4-(3-chloro-4-cyanophenyl)-N-(2-(4-((4-(2-(2,6-dioxopiperidin-3-yl)-6-fluoro-1,3-dioxoisoindolin-5-yl)piperazin-1-yl)methyl)piperidin-1-yl)pyrimidin-5-yl)-2,5-dimethylpiperazine-1-carboxamide]	≤ 10
C[C@@H]1CN(c2ccc(C#N)c(Cl)c2)[C@@H](C)CN1C(=O)Nc1ccc(N2CCC(CN3CCN(c4ccc5c(c4)CN([C@H]4CCC(=O)NC4=O)C5=O)CC3)CC2)nc1 [Compound 1-44, (2R,5S)-4-(3-chloro-4-cyanophenyl)-N-(6-(4-((4-(2-((S)-2,6-dioxopiperidin-3-yl)-1-oxoisoindolin-5-yl)piperazin-1-yl)methyl)piperidin-1-yl)pyridin-3-yl)-2,5-dimethylpiperazine-1-carboxamide]	≤ 10
C[C@@H]1CN(c2ccc(C#N)c(C(F)(F)F)c2)[C@@H](C)CN1C(=O)Nc1ccc(N2CCC(CN3CCN(c4ccc5c(c4)C(=O)N(C4CCC(=O)NC4=O)C5=O)CC3)CC2)c(F)c1 (stereo partly drawn) [Compound 1-45, (2R,5S)-4-(4-cyano-3-(trifluoromethyl)phenyl)-N-(4-(4-((4-(2-(2,6-dioxopiperidin-3-yl)-1,3-dioxoisoindolin-5-yl)piperazin-1-yl)methyl)piperidin-1-yl)-3-fluorophenyl)-2,5-dimethylpiperazine-1-carboxamide]	≤ 10
